Like-named read-outs stand apart in the source and are kept apart here.
Tests used:
[1] = molecular target: β-lactamase from Proteus vulgaris 1028; experiment: β-lactamase inhibition, nitrocefin cleavage, isolated enzyme from P. vulgaris 1028; type: biochemical; conditions: 15 min pre-incubation, nitrocefin substrate, 37° C., pH 7.0
Description: (§1) Various β-lactamases can be isolated from penicillin-resistant or cephalosphorin-resistant strains of bacteria such as Klebsiella pneumoniae NCTC 418, Proteus vulgaris 1028 and E. coli RTEM. For this purpose, the corresponding strains are cultivated in Tryptic Soy Broth (Difco) and harvested by centrifugation in the late logarithmic growth phase (when required 50-100 mg/l of ampicillin are added to the medium towards the end of the log-phase in order to induce the β-lactamase). The thus-obtained bacteria mass is treated with 10 mM of phosphate buffer (pH 7.0); the cells are broken open with ultrasound (Biosonic III, Bronwill; 3-5 min. impulse) while cooling. The mixture is centrifuged (20,000 r/min.) for 20-30 minutes and there is obtained a clear crude extract which can be used as the enzyme source (β-lactamase source) and which can be frozen at -20° C. for several months without loss of activity.
(§2) The determination of the activity of the isolated β-lactamases can be carried out according to the method of O'Callaghan, C. H. et al. [Antimicr. Ag. Chemother. 1, 283-288 (1972)] with the chromogenic cephalosporin nitrocefin (Glaxo). The required experimental batch contains per ml of water: 50 mM of phosphate buffer (pH 7.0), 0.1 mM of nitrocefin and sufficient enzyme (β-lactamase) in order to attain a ΔA/min. of about 0.1. The cleavage of the substrate, which is associated with a colour change, is carried out at 37° C. and is followed quantitatively at 482 nm with a spectral photometer.
(§3) The above-described cleavage of the chromogenic substrate by β-lactamases (experiment B) can be inhibited by adding compounds of formula I (inhibitors). Since it has been shown that the inhibitors irreversibly inactivate the β-lactamase in a time-dependent reaction, the reaction (cleavage of the substrate) is started by adding the substrate, in each case after a pre-incubation period of β-lactamase with inhibitor of 15 minutes. The determination of the β-lactamase-inhibiting activity of compounds of formula I in which R^1 signifies a group readily cleavable by hydrolysis is carried out in each case in the presence or absence of an esterase. As a measurement for the affinity of the respective tested inhibitor to the β-lactamase, which represents a measurement of the strength of the inhibitor, there serves that concentration which inhibits to 50% (IC 50 in μM/l) the cleavage of the substrate (nitrocefin) carried out under the above experimental conditions (experiment B) in the absence of an inhibitor. 4 to 6 experiments with differing concentrations of inhibitor were carried out in order to determine the IC 50. The determination of the IC 50 was carried out graphically.

[2] = molecular target: T1, β-lactamase from E. coli RTEM (Escherichia coli, UniProt P62593); experiment: β-lactamase inhibition, nitrocefin cleavage, isolated enzyme from E. coli RTEM; type: biochemical; conditions: 15 min pre-incubation, nitrocefin substrate, 37° C., pH 7.0
T1 construct: there is obtained a clear crude extract which can be used as the enzyme source; endogenous in cells; host or cells: E. coli RTEM, sonicated cells, clear crude extract
Description: as §1, §2, §3

[3] = in the absence of an esterase, read-out: β-Lactamase inhibition IC50, P. vulgaris 1028, -E
[4] = in the presence of an esterase, read-out: β-Lactamase inhibition IC50, P. vulgaris 1028, +E

T1 sequence (P62593 24-286 limits assumed): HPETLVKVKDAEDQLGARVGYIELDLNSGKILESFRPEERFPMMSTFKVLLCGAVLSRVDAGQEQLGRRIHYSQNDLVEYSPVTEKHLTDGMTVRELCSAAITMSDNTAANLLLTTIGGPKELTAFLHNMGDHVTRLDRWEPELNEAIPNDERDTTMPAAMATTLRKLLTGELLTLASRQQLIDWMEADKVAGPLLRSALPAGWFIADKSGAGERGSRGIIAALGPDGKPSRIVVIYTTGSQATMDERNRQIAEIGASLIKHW

Row | Structure (SMILES) | IC50 [1, 3] [nM] | IC50 [1, 4] [nM] | IC50 ([2]; in the absence of an esterase) [nM] | IC50 ([2]; in the presence of an esterase) [nM]
1 | CC(=O)C[C@@]1(SC(C)=O)C(=O)N2[C@@H](C(=O)OCOC(=O)C(C)(C)C)C(C)(C)S[C@@H]21 [Example 5, methylene-(2S,5R,6R)-6-acetonyl-6-acetylthio-penicillanate pivalate] | 4200 | 200 | 700 | 10
2 | CC(C=C1C(=O)N2[C@@H]1SC(C)(C)[C@@H]2C(=O)OCOC(=O)C(C)(C)C)=NO [Example 1, methylene-(2S,5R)-6-[2-(hydroxyimino)propylidene]pencillanate pivalate] | 460 | 35 | 60 | 2
3 | CC(=O)C[C@]1(Sc2ccccc2)C(=O)N2[C@@H](C(=O)OCOC(=O)C(C)(C)C)C(C)(C)S[C@@H]21 [Example 4, methylene-(2S,5R,6S)-6-acetonyl-6-phenylthio-penicillanate pivalate] | 3700 | 300 | 800 | 2
4 | CC(=O)C[C@]1(N2CCOCC2)C(=O)N2[C@@H](C(=O)OCOC(=O)C(C)(C)C)C(C)(C)S[C@@H]21 [Example 3, methylene-(2S,5R,6S)-6-acetonyl-6-morpholino-penicillanate pivalate] | 4100 | 100 | 900 | 10
